Experimental data from ChEMBL document CHEMBL2074062, “Active intestinal secretion of new quinolone antimicrobials and the partial contribution of P-glycoprotein” (J Pharm Pharmacol, 2001).

Key:
[1] = biological target: ATP-dependent translocase ABCB1 (Homo sapiens, UniProt P08183); assay: TP_TRANSPORTER: transepithelial transport (basal to apical) in MDR1-expressing LLC-PK1 cells; assay type: functional, cell-based; settings: pig
[2] = biological target: ATP-dependent translocase ABCB1 (Mus musculus, UniProt P21447); assay: TP_TRANSPORTER: decrease in intestinal clearance in mdr1a(-/-) mouse; assay type: functional, tissue-based, Intestine
ATP-dependent translocase ABCB1 (Mus musculus, UniProt P21447), sequence (P21447 whole entry): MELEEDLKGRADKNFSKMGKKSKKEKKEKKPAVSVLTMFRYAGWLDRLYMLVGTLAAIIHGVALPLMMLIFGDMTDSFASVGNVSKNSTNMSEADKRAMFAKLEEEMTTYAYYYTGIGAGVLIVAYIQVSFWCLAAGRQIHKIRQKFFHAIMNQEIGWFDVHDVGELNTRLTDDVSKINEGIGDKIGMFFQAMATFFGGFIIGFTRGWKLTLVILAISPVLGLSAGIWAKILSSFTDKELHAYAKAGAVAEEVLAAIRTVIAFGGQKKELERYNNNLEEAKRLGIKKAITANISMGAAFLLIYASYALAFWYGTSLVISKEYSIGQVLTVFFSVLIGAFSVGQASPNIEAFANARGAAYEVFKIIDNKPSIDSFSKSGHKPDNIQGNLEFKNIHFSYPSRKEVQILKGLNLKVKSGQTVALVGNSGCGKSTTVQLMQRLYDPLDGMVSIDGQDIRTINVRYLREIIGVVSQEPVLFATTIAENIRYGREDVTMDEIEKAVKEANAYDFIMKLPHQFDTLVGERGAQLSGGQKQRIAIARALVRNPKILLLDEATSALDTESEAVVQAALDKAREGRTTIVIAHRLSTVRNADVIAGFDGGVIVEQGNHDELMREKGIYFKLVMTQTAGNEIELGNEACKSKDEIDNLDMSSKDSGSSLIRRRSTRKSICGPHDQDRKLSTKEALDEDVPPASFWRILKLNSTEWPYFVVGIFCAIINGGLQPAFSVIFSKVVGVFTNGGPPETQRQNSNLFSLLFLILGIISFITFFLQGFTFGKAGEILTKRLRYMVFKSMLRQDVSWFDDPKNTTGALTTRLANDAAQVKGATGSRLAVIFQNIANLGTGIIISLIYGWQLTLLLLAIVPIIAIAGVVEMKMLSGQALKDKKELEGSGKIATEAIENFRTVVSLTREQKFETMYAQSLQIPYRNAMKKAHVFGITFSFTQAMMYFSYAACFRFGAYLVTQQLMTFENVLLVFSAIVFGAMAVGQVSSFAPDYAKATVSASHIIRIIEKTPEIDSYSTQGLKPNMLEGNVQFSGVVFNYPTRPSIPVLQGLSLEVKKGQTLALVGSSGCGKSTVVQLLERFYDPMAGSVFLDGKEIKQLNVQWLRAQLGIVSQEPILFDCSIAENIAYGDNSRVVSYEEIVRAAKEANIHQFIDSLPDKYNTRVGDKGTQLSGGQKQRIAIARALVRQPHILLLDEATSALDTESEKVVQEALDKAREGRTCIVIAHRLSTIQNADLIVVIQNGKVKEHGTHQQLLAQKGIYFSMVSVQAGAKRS

ATP-dependent translocase ABCB1 (Homo sapiens, UniProt P08183), sequence (P08183 whole entry): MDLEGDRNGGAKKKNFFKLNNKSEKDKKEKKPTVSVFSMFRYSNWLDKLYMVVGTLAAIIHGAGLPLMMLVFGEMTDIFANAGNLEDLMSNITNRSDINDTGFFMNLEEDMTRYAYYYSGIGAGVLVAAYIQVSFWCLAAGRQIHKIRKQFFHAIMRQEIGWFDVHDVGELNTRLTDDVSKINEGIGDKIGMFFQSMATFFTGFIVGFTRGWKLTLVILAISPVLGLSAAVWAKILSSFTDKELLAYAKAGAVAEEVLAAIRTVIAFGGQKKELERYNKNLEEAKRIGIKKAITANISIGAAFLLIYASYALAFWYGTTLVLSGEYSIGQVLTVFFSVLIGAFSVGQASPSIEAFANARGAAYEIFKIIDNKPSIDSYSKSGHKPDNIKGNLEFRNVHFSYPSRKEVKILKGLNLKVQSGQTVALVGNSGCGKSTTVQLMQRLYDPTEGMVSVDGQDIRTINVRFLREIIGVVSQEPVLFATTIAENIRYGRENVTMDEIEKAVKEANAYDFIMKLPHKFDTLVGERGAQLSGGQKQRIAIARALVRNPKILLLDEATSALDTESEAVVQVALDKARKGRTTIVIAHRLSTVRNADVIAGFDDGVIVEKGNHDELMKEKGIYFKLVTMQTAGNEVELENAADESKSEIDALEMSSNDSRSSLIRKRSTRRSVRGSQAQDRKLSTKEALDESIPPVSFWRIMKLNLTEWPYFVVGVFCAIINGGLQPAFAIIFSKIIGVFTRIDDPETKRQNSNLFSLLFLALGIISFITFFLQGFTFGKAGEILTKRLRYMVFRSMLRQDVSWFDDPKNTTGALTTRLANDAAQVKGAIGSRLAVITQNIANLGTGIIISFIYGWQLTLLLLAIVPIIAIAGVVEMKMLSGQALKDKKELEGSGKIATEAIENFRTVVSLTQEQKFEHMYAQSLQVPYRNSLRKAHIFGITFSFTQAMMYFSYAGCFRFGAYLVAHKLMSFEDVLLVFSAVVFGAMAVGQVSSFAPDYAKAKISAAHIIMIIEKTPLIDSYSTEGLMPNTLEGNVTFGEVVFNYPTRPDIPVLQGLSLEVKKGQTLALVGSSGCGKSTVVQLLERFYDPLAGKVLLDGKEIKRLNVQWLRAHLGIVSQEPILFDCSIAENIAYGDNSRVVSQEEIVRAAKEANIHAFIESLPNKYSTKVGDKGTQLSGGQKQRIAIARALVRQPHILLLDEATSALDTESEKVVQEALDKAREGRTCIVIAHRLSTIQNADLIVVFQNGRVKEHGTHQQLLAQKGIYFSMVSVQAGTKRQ

Row | Activity [1] | Activity [2] | SMILES
1 | substrate [+] | – | C[C@@H]1CN(c2c(F)c(N)c3c(=O)c(C(=O)O)cn(C4CC4)c3c2F)C[C@H](C)N1 [SPARFLOXACIN]
2 | substrate [+] | substrate [+] | Cc1c(F)c(N2CCNC(C)C2)cc2c1c(=O)c(C(=O)O)cn2C1CC1 (stereo not drawn) [GREPAFLOXACIN]
